These results are taken from US10252997B2, “Monocyclic compound” (Takeda Pharmaceutical Company Limited, priority 2015, dated 2019).

The test addresses T1, Human ACC1 (Homo sapiens, UniProt Q13085).
T1 construct: His6 (from vector pFAST-BacHTc; purified on Ni-NTA) (N); made in house; host or cells: SF-9 insect cells, recombinant baculovirus BAC-ACC1
Nature of the test: Measurement of ACC1 inhibitory activity (Malonyl-CoA produced, RapidFire-mass spectrometry). In kind it is biochemical. Conditions: 10 μM of the test compound; read-out: ACC1 inhibitory rate (%) at 10 μM. As to the method:
(1) Cloning of Human ACC1 Gene and Preparation of Recombinant Baculovirus
Human ACC1 gene was cloned by PCR using a human liver cDNA library (Clontech) as a template and Primer 1 and Primer 2 shown below. Primer 1 and Primer 2 were prepared by adding SalI, NotI restriction enzyme recognition sequences based on the information of the base sequence of human ACC1 gene (Genbank Accession U19822).
PCR was performed using Pyrobest DNA polymerase (TAKARA BIO INC.). The obtained PCR product was cloned to pT7 Blue vector (Novagen) and after confirmation of the base sequence, digested with restriction enzymes SalI and […]. The obtained DNA fragment was inserted into pFAST-BacHTc (Invitrogen) digested with restriction enzymes SalI and […] to give expression plasmid ACC1/pFAST-BacHTc.
Using the expression plasmid ACC1/pFAST-BacHTc and BAC-TO-BAC Baculovirus Expression System (Invitrogen), virus stock BAC-ACC1 of recombinant Baculovirus was prepared.
(2) Preparation of ACC1 Protein
SF-9 cells (Invitrogen) were inoculated to a medium (10 L) for insect cells (Sf-900IISFM medium (Invitrogen) containing 5% fetal bovine serum (Trace), 50 mg/L Gentamicin (Wako Pure Chemical Industries, Ltd.) and 0.1% Pluronic F-68 (Invitrogen)) at 1.0×10^6 cells/mL, and cultured with shaking in Wave Bioreactor (GE Healthcare) at 27° C., 20 rpm, rocking angle 100, oxygen concentration 30%.
On day 2 of the culture, recombinant Baculovirus BAC-ACC1 was added, and the cells were cultured for 3 days. The culture medium was centrifuged at 4000×g for 10 min to give virus-infected cells. The cells were washed with phosphate buffered saline (Invitrogen) and centrifuged under the same conditions. The obtained cells were cryopreserved at −80° C.
The cryopreserved cells were thawed in ice, and suspended in 800 mL of 25 mM HEPES buffer (pH 7.5) containing 10% Glycerol, 0.3 M NaCl, 1 mM EDTA, 25 mM Sodium β-Glycerophosphate and 1 mM Sodium Orthovanadate, and supplemented with Complete Protease Inhibitor (Roche). The obtained suspension was homogenized two times in a polytron homogenizer (Kinematica) at 20,000 rpm for 20 sec. The obtained cell disruption solution was clarified by centrifugation at 186,000×g for 60 min, and the supernatant was passed through Ni-NTA Superflow Cartridges (5 mL) (QUIAGEN). Furthermore, it was washed with 25 mM HEPES buffer (pH 7.5) containing 20 mM Imidazole and 0.3 M NaCl, and eluted with 25 mM HEPES buffer (pH 7.5) containing 250 mM Imidazol and 0.3 M NaCl. The eluate was concentrated by Amicon Ultra-15 (Nihon Millipore K.K.) having a fraction molecular weight of 50K. The obtained concentrate was subjected to gel filtration with 50 mM HEPES buffer (pH 7.5) containing 10 mM MgCl2, 2 mM dithiothreitol, 10 mM tripotassium citrate and 0.3 M NaCl by using HiLoad 26/60 Superdex200 prep grade gel filtration column (GE Healthcare) to give ACC1. The obtained ACC1 was cryopreserved at −80° C.
(3) Measurement of ACC1 Inhibitory Activity
ACC1 obtained in the above-mentioned (2) was diluted with an enzyme reaction buffer (50 mM HEPES (pH 7.5), 10 mM MgCl2, 10 mM Tripottasium Citrate, 2 mM Dithiothreitol, 0.001% Fatty acid free BSA) to a concentration of 0.2 μg/ml, and the mixture was added to each well of a 384 well assay plate by 10 μl. A test compound dissolved in dimethyl sulfoxide (DMSO) was diluted with an enzyme reaction buffer, and the resulting solution (5 μl) was added to each well. The mixture was incubated at room temperature for 60 min. Then, a substrate solution (50 mM KHCO3, 200 μM ATP, 200 μM Acetyl-CoA, 5 μl) was added to each well, and the mixture was reacted at room temperature for 30 min. The reaction was quenched by adding a reaction quenching liquid (1.3% formic acid, 0.2 μM Malonyl-^13C3-CoA) by 60 μL each to the obtained reaction mixtures (test compound addition group).
In addition, a reaction was performed in the same manner as above and without adding the test compound (test compound non-addition group). […]

On to `C[C@@H](COc1cnc(-c2ccc(Oc3cccc(OCC4CC4)c3)cc2)o1)NC(N)=O` [Example 82, 1-((2S)-1-((2-(4-(3-(cyclopropylmethoxy)phenoxy)phenyl)-1,3-oxazol-5-yl)oxy)propan-2-yl)urea], for which the inhibition at 10 µM is 96%.
